Laboratory results as given in patent publication US5750567A, “Farnesyl transferase inhibitors, preparation thereof and pharmaceutical compositions containing same” (Phone-Poulenc Rorer SA., priority 1995, dated 1998).
Structures can show the parent of a compound that is named as a salt.

Legend:
[1] = system: farnesylation of the Ras protein in THAC line (CCL 39 cells transfected with activated Ha-Ras); assay: activity against cells: inhibition of farnesylation of the Ras protein in THAC cells (Western blot); assay type: cell-based; settings: CCL39, 24 hours at 37° C.
Method: The activity against cells can be determined in the following way:
The cell line is the THAC line (CCL 39 cells transfected with activated Ha-Ras) according to K. Seuwen et al., EMBO J., 7(1) 161-168 (1988). The cells are cultured in Petri dishes with a diameter of 6 cm containing a DMEM medium, 5% foetal calf serum and 1% G418.
After culturing for 24 hours, the culture medium is changed (with or without the serum).and the product to be studied is added in solution in dimethylformamide (DMF), in the presence or in the absence of DTT (final concentrations of 0.5% in DMF and 0.1 mM in DTT). After culturing for 24 hours at 37° C., the cells are lysed in 1 cm^3 of lysis buffer (20 mM Tris, HCl, 1% Triton X114, 5 mM MgCl2, 7 mM DTT, 150 mM NaCl, pH=7.4). The lysates are clarified by centrifuging at 4000 revolutions/minute for 10 minutes. […] The radioactivity of the bands corresponding to farnesylated Ras and to non-farnesylated Ras makes it possible to determine the percentage of inhibition of farnesylation of the Ras protein.

[2] = biological target: T1, human farnesyl transferase (Homo sapiens, UniProt P49354+P49356); assay: inhibition of farnesyl transferase (transfer of [3H]farnesyl from [3H]FPP to p21 H-Ras); assay type: biochemical; settings: p21 H-Ras substrate, 20 minutes at 37° C.; 9 concentrations; read-out: Inhibitory activity IC50
T1 construct: human farnesyl transferase purified from THP1 cell cultures; endogenous in cells; host or cells: THP1 cells (enzyme purified from the cultures)
Method: Farnesyl transferase activity is determined by the quantity of [^3 H]farnesyl transferred from [^3 H]farnesyl pyrophosphate [[^3 H]FPP) to the p21 H-Ras protein. The standard reaction mixture is composed, for a final volume of 60 μl, of 50 mM Tris-HCl, 5 mM MgCl2, 5 mM dithiotreitol, 0.2% octyl β-D-glucopyranoside, 200 picomol p21 H-ras, 4.5 picomol [^3 H]FPP (activity 61000 dpm/picomol).
Reaction is initiated by adding approximately 5 ng of human farnesyl transferase purified from THP1 cell cultures. After incubation for 20 minutes at 37° C. in a microtitration plate containing 96 1-cm^3 wells per plate (Titer Plate®, Beckman), the reaction is stopped by adding 0.4 cm^3 of 0.1% SDS in methanol at 0° C. The mixture is then treated with 0.4 cm^3 of 30% trichloroacetic acid (TCA) in methanol. The plates are left in ice for 1 hour. […] The membranes are dried in a microwave oven, then impregnated with scintillation medium by melting of Meltilex® (Pharmacia) under hot air, and lastly counted in cpm in a β-Plate counter® (LKB). […]
The percentage inhibition values are obtained by comparison of the tests with and without inhibitor after deduction of blanks, the IC50 values being measured on the basis of the inhibitions obtained with 9 different concentrations using Enzfitter® or Grafit® software.

| IC50 [2] | SMILES | inhibition at 10 µM ([1]; 10 μM) | inhibition at 50 µM ([1]; 50 μM) |
| --- | --- | --- | --- |
| 15 nM | COC(=O)[C@H](CCSC)NC(=O)C1CCCc2c(NC[C@@H](N)CS)cccc21 (stereo partly drawn) [Example 1, trifluoroacetate of the methyl ester of N-[5-(2(R)-amino-3-mercapto-propylamino)-1,2,3,4-tetrahydronaphthyl-1(R,S)-carbonyl]-(L)-methionine] | > 10% | – |
| 405 nM | CSCC[C@H](NC(=O)C1CCCc2c(NC[C@@H](N)CS)cccc21)C(=O)O (stereo partly drawn) [Example 2, trifluoroacetate of N-[5-(2(R)-amino-3-mercaptopropylamino)-1,2,3,4-tetrahydronaphthyl-1(R,S)-carbonyl]-(L)-methionine] | – | 50% |
